How the values were obtained:
[1] = target: TGFβRI kinase ALK5 (Homo sapiens (Human), UniProt P36897); assay: Inhibition of TGFβRI kinase ALK5 activity (ADP-Glo kit); format: biochemical; conditions: ATP 50 μM, 27° C. 2.5 hours
Description: The inhibition effect of TGFβRI kinase activity in vitro was determined by the following method.
The inhibition effect of the compounds of the present invention on TGFβRI kinase ALK5 activity was determined by the following experimental method:
TGFβRI kinase assay kit (V4093, Promega) was used to assay enzyme activity. 2 μl of enzyme solution (the final concentration of enzyme in the reaction system was 2 ng/μL) formulated with reaction buffer (40 mM Tris pH 7.5, 20 mM MgCl2, 0.1 mg/ml BSA), 1 μl of a 3-fold gradient dilution of the compounds dissolved in 5% DMSO, and 2 μl of a mixed solution of ATP and TGFβRI substrate peptide (the final concentration of ATP was 50 μM, and the final concentration of substrate was 0.2 μg/μL) were added successively to a 384-well plate (4514, Corning). After reaction at 27° C. for 2.5 hours, 5 μl of ADP-Glo solution in the kit was added to each well, then the plate was placed at 27° C. for 40 minutes. 10 μl of kinase assay reagent was then added to each well, then the plate was placed at 27° C. for 30 minutes. The chemiluminescence signal values were measured with a Victor 3 (PerkinElmer) multi-function microplate reader. The IC50 values of the compounds for enzyme inhibition were calculated using Graphpad prism software based on each concentration of the compound and the corresponding signal value thereof.

[2] = system: NIH3T3 cell; assay: Inhibition of NIH3T3 cell proliferation (CellTiter-Glo); format: cell-based; conditions: NIH3T3, 72 hours, 0.5% FBS; for IC50: Mus musculus
Description: The inhibition effect of the compounds of the present invention on NIH3T3 cell proliferation was determined by the following in vitro test.
The inhibition effect of the compounds of the present invention on NIH3T3 cell proliferation was determined by the following experimental method:
On a 96-well white plate with transparent bottom (3903, Corning), 100 μL of NIH3T3 cell (GNM6, Cell Bank of Typical Culture Collection Committee of Chinese Academy of Sciences) was seeded in a DMEM medium containing 10% FBS (SH1-30243.01, GE) in each well. The seeding density is 2000 cells/well. The cells were incubated overnight at 37° C., in 5% CO2. After overnight incubation, each well was replaced with 90 μL of DMEM medium containing 0.5%0 FBS. 10 μl of a 3-fold gradient dilution of the compounds with DMEM medium containing 0.5% FBS was then added, and the plate was incubated for 72 hours in a cell incubator at 37° C., in 5% CO2. Finally, 50 μL of CellTiter-Glo (G7573, Promega) was added to each well. After incubation for 10 minutes at room temperature, the chemiluminescence signal values were measured with a Victor 3 microplate reader (PerkinElmer). The IC50 values of the compounds were calculated using Graphpad Prism software based on each concentration of the compound and the corresponding signal value thereof.

[3] = system: Smad signaling pathway of TGFβRI; assay: Inhibition of Smad signaling pathway of TGFβRI (3TP-lux luciferase reporter in HepG2 cells); format: cell-based; conditions: HepG2, 3TP-lux plasmid, 18 hours; for IC50: Homo sapiens
Description: The inhibition effect of the compounds of the present invention on Smad signaling pathway of TGFβRI was determined by the following in vitro test.
The inhibition effect of the compounds of the present invention on Smad signaling pathway of TGFβRI was determined by the following experimental method:
On a 96-well plate, 100 μL of HepG2 cell (TCHu 72, Cell Bank of Typical Culture Collection Committee of Chinese Academy of Sciences) was seeded on an EMEM medium containing 10% FBS (42360-099, Gibco) in each well. The seeding density is 2.5×10^4 cells/well. The cells were incubated overnight at 37° C., in 5% CO2. Each well was replaced with fresh EMEM medium containing 10% FBS. 0.1 μg of 3TP-lux plasmid (11767, Biovector Science Lab, Inc.) was transfected in each well. The cells were further incubated for 24 hours at 37° C., in 5% CO2. Each well was replaced with 90 μL of EMEM medium containing 0.5% FBS, then the cells were starved for 6 hours. The compounds were formulated as a 20 mM stock solution, which was diluted in gradient to a 400× concentration with 100% DMSO, and further 40-fold diluted with EMEM containing 0.5% FBS. The cell culture plate was taken out, then 10 μl of diluted compound or control (0.25% DMSO) was added to each well respectively. The plate was shaken gently, then incubated for 18 hours in an incubator at 37° C., in 5% CO2. Finally, 100 μl of detection reagent ONE-Glo™ Luciferase Assay (E6110, Promega) was added to each well, and the plate was placed in dark at room temperature for 10 minutes. The chemiluminescence signal values were measured with a Victor 3.0 (PerkinElmer). The IC50 values of the compounds were calculated using Graphpad Prism software based on each concentration of the compound and the corresponding signal value thereof.

Sequence of TGFβRI kinase ALK5 (P36897 34-503): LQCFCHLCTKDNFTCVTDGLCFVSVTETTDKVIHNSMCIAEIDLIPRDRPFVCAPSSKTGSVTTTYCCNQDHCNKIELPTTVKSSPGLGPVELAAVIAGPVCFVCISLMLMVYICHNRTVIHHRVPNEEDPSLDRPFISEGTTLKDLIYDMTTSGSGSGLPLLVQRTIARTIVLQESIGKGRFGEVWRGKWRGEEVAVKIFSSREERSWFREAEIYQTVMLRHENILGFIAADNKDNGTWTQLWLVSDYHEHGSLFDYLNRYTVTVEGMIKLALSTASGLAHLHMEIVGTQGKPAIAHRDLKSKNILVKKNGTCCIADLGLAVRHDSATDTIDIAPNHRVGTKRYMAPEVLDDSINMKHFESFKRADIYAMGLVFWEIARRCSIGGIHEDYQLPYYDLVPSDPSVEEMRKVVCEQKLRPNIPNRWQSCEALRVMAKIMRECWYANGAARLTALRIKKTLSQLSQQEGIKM

| Structure (SMILES) | IC50 [1] | IC50 [2] | Maximum inhibition rate (%) [2] | Maximum inhibition rate (%) [3] | IC50 [3] |
| --- | --- | --- | --- | --- | --- |
| Cc1cccc(-c2nn(C3CCCC3)cc2-c2ccnc(-c3ccc(S(C)(=O)=O)cc3)c2)n1 [Example 3, 4-(1-Cyclopentyl-3-(6-methylpyridin-2-yl)-1H-pyrazol-4-yl)-2-(4-(methylsulfonyl)phenyl)pyridine] | 241 nM | 366 nM | 105% | 101% | 57 nM |
| Cc1cccc(-c2nn(C3CC3)cc2-c2ccnc(-c3ccc(C#N)cc3)c2)n1 [Example 7, 4-(4-(1-Cyclopropyl-3-(6-methylpyridin-2-yl)-1H-pyrazol-4-yl)pyridin-2-yl)benzonitrile] | – | – | – | 98% | 168 nM |
| Cc1cccc(-c2nn([C@@H]3CCN(S(C)(=O)=O)C3)cc2-c2ccnc(-c3ccc(S(C)(=O)=O)cc3)c2)n1 [Example 8, (R)-4-(3-(6-Methylpyridin-2-yl)-1-(1-(methylsulfonyl)pyrrolidin-3-yl)-1H-pyrazol-4-yl)-2-(4-(methylsulfonyl)phenyl)pyridine] | 370 nM | 490 nM | 114% | 98% | 218 nM |
